Key:
[1] = target: Phosphatidylinositol 4-phosphate 5-kinase type-1 gamma (Homo sapiens) (UniProt O60331); test: Selectivity interaction (KinomeScan (DiscoverX)) EUB0001049a PIP5K1C; conditions: at 1 µM
[2] = target: T1, Ephrin type-B receptor 1 (Homo sapiens) (UniProt P54762); test: Selectivity interaction (ActivX KiNativ screen (kinase selectivity in THP-1 cell lysates)) EUB0000639a EPHB1; type: subcellular; conditions: lysate
T1 sequence (whole entry): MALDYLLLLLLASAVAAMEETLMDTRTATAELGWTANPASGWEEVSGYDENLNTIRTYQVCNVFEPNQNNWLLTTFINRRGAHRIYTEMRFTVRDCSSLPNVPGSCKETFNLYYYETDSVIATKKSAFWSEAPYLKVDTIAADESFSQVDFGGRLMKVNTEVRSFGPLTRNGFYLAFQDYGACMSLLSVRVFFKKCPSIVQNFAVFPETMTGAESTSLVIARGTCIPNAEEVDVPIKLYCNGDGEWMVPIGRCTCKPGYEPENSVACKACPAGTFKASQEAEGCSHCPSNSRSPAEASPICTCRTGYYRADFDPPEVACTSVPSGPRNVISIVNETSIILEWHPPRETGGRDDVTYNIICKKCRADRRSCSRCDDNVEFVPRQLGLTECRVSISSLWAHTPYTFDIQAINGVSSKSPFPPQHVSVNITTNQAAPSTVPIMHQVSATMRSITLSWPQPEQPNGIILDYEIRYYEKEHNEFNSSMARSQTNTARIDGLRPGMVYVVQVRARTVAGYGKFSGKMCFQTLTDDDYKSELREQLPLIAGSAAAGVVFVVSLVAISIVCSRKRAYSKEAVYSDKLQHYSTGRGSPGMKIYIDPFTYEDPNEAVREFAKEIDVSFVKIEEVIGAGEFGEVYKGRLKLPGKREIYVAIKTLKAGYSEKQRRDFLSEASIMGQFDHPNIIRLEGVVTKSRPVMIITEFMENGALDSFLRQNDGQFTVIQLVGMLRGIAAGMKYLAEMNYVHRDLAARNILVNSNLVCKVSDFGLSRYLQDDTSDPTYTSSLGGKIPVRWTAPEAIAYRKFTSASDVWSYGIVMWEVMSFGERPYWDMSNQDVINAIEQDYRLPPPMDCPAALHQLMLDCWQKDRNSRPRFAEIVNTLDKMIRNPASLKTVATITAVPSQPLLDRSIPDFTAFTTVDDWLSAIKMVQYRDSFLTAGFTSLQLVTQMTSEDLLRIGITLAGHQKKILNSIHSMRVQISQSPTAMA

[3] = target: T2, RNA 5'-monophosphate methyltransferase (Homo sapiens) (UniProt Q7Z5W3); test: Selectivity interaction (Transferase panel (protein, RNA, and DNA methyltransferases. and EP300 (acetyltransferase))) EUB0000270b BCDIN3D
T2 sequence (whole entry): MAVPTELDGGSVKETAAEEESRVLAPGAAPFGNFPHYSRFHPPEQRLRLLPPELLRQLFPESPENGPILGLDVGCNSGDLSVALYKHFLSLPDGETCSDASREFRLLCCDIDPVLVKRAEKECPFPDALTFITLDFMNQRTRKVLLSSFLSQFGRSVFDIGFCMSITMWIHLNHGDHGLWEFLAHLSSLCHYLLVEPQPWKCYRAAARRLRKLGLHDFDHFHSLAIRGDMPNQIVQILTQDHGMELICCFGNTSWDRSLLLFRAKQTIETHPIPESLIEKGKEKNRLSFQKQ

[4] = target: Serine/threonine-protein kinase OSR1 (Homo sapiens) (UniProt O95747); test: Selectivity interaction (KinomeScan (DiscoverX)) EUB0000695a OXSR1; conditions: at 100 nM
Chain of Serine/threonine-protein kinase OSR1 (Homo sapiens) (O95747 2-527 limits assumed): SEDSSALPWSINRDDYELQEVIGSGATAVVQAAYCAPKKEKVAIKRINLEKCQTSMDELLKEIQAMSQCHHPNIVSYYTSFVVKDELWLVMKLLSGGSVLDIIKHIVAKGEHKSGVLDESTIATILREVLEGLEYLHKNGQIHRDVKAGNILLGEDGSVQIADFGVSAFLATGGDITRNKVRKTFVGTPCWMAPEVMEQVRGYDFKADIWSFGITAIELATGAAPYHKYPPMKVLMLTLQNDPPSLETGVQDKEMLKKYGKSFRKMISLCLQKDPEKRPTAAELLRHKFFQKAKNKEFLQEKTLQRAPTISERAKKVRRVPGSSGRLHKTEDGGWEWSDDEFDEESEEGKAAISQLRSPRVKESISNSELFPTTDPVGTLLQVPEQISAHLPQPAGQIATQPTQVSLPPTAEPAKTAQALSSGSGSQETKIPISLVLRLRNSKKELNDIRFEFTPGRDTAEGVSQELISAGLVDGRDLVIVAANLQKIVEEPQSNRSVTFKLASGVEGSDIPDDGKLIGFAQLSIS

[5] = test system: Epidermal growth factor receptor (Homo sapiens), P00533 [UNDEFINED MUTATION]; test: Selectivity interaction (KinomeScan (DiscoverX)) EUB0000229b EGFR; conditions: at 1 µM
Chain of Epidermal growth factor receptor (Homo sapiens), P00533 [UNDEFINED MUTATION] (P00533 whole entry, looked up, change not shown): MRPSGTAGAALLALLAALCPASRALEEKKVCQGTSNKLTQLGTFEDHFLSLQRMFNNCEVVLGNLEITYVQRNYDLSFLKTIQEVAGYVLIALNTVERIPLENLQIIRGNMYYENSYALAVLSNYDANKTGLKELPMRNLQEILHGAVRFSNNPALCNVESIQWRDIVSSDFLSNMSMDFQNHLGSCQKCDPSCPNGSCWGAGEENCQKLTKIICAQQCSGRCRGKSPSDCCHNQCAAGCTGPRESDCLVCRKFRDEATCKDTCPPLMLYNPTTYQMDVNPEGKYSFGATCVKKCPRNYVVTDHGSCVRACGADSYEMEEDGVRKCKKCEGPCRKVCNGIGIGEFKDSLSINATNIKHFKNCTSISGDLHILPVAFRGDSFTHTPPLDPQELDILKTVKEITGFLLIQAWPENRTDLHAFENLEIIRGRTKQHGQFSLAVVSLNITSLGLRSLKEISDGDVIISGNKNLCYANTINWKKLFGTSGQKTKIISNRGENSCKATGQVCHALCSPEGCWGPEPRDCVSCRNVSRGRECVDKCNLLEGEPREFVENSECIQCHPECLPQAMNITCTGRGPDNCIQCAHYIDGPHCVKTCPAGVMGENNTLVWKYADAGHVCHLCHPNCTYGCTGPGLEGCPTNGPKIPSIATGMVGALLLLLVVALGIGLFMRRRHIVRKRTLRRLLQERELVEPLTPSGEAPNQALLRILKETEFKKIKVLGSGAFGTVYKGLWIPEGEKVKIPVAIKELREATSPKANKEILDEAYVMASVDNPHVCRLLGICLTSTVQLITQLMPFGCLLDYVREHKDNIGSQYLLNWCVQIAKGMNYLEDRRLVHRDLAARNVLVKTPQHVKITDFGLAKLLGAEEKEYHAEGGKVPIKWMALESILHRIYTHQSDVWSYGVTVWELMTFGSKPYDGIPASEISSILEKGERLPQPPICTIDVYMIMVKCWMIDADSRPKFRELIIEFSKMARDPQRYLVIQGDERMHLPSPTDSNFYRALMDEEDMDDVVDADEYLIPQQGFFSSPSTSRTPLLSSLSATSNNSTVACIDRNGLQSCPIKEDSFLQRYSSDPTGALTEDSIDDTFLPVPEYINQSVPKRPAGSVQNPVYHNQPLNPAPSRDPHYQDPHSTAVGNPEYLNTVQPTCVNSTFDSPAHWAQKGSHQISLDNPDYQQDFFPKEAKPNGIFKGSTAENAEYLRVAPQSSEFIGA

[6] = target: T3, cGMP-dependent protein kinase 2 (Homo sapiens) (UniProt Q13237); test: Selectivity interaction (KinomeScan (DiscoverX)) EUB0001619a PRKG2; conditions: at 1 µM
T3 sequence (whole entry): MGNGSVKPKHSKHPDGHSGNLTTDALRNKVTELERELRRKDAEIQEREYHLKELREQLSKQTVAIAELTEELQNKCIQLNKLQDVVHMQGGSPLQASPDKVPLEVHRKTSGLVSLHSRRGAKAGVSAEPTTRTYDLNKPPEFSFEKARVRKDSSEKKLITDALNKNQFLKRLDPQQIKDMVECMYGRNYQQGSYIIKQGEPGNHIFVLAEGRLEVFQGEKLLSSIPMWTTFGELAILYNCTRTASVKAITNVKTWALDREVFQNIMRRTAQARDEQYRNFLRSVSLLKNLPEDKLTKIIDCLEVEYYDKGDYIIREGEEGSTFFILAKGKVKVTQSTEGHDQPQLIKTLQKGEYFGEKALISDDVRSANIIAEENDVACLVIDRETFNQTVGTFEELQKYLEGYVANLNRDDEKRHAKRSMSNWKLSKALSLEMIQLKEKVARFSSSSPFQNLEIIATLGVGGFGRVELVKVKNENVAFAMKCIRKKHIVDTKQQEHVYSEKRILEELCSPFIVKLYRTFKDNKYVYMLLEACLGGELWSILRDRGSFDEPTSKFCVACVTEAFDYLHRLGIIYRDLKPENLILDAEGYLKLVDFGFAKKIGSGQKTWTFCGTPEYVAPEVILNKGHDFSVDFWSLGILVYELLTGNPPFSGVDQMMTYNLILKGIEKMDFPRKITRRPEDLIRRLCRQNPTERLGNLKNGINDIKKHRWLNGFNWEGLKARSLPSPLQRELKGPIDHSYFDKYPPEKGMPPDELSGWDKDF

[7] = target: T4, Serine/threonine-protein kinase STK11 (Homo sapiens) (UniProt Q15831); test: Selectivity interaction (Kinase panel (KiNativ target engagement assay in Jurkat cells)) EUB0001635a STK11; type: cell-based; conditions: Selectivity number of off-targets 0.0, Selectivity number of targets 233.0, Source Knowledge https://www.sciencedirect.com/science/article/pii/S2451945619300674?via%3Dihub, at 1 µM
T4 sequence (whole entry): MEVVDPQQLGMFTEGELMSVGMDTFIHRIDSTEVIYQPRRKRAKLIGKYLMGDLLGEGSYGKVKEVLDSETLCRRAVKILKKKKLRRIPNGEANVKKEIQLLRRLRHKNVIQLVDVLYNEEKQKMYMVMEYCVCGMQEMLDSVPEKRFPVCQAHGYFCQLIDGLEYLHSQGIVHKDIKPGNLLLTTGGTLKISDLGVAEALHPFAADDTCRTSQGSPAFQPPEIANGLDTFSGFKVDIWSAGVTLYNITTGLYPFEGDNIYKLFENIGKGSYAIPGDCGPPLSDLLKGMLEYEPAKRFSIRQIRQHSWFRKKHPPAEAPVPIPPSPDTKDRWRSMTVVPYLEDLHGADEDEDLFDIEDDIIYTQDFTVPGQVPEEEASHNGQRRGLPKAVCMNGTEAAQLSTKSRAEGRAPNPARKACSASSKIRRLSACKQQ

Chain of Phosphatidylinositol 4-phosphate 5-kinase type-1 gamma (Homo sapiens) (O60331 whole entry): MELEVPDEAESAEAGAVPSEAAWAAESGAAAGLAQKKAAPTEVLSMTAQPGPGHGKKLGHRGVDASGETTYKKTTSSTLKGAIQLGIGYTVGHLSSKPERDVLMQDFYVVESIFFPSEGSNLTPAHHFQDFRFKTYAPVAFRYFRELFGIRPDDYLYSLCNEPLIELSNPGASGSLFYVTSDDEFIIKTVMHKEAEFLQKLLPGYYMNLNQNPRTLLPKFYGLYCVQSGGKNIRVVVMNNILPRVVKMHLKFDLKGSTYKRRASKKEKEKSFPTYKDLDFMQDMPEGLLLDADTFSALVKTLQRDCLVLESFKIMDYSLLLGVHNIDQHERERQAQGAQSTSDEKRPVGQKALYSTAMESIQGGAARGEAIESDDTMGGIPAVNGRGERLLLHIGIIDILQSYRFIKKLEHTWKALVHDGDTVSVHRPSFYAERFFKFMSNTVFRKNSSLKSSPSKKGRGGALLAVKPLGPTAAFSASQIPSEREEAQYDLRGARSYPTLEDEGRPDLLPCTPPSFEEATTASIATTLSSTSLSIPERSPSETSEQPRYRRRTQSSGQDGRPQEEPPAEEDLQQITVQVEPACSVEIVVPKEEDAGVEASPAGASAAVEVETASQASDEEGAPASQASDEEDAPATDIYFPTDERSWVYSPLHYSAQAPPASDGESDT

With `COc1cc(Nc2nc(C)cc(-c3cnn4nc(OC)ccc34)n2)cc(C(F)(F)F)c1` the % of control [1] was 94%.
`CC[C@@H]1[C@H](F)C(=O)N[C@@H]1COc1nccc2cc(C(N)=O)c(OC)cc12` [ZIMLOVISERTIB] gave a % of inhibition ([2]; at 0.01 µM) of -7%, a % of inhibition ([2]; at 0.04 µM) of -38.7% and a % of inhibition ([2]; at 0.2 µM) of -5.5%. For the same molecule, the % of inhibition ([2]; at 1 µM) was -14.3% and the % of inhibition ([2]; at 5 µM) was -6.5%.
`Cc1cc(CN)cc(C)c1-c1ncn(C)c1-c1cncn1C` was tested, and the % activity ([3]; at 1 µM) was over 90% and the % activity ([3]; at 10 µM) was over 80%.
For `Cc1cc(F)c(C(=O)Nc2cccc(-c3nncn3C(C)C)n2)cc1-n1cnc(C2CC2)c1`, the % of control [4] was 86%.
`COc1cc(N(C)c2ccnc3ccc(C(F)(F)F)cc23)cc(OC)c1OC` was tested, and the % binding [5] was 98%.
In the case of `N#Cc1cccc(-c2c[nH]c3ncnc(N4CCOCC4)c23)c1`, the % of control [6] is reported as 100%.
For `C=CC(=O)Nc1ccc(C(=O)Nc2[nH]nc3c2CN(C(=O)N[C@H](CN(C)C)c2ccccc2)C3(C)C)cc1`, the % of engagement [7] was 11.1%.

From ChEMBL document CHEMBL5465560, “Selectivity Literature for EUbOPEN Chemogenomic Library” (2024)
